The record followed here is patent publication US9994515B2, “Aryl naphthyl methanone oxime(s) and process for preparation thereof” (Council of Scientific & Industrial Research, priority 2013, dated 2018).

One experiment deals with Colo205. Kind of experiment: Sulphorhodamine B assay in Colo205 colon cancer cells. It is filed as cell-based. The conditions noted are these: Homo sapiens, COLO 205; SRB assay. In general terms: Sulforhodamine B stains cellular protein and so reports cell mass.
In another experiment the test system is DLD1. The experiment in a line: Sulphorhodamine B assay in DLD1 colon cancer cells. The following applies: Homo sapiens, DLD-1; SRB assay. It is filed as cell-based.
The test system of experiment [1] is CD133+ DLD1 colon cancer cells. The experiment in a line: CD133+ colon cancer stem cell population by flow cytometry. The conditions noted are these: 20 uM, 24 h, vehicle 15.30%. In kind it is cell-based. On the procedure:
FIG. 9. Centans reduces CD133+ colon cancer stem cells with a higher efficacy than salinomycin. DLD1 colon cancer cells were treated with indicated compounds for 24h following which the CD133+ population was assessed by flow cytometry using CD133 antibody or relevant isotype control antibody (BD biosciences) in a Becton Dickinson FACS Calibur. Numbers in the dot plot represent % CD133+ cells.
A general note: A flow cytometer gives signals particle by particle.

The next experiment deals with HCT116. Kind of experiment: Sulphorhodamine B assay in HCT116 colon cancer cells. The following applies: Homo sapiens, HCT-116; SRB assay. It is filed as cell-based.
The test system of a further experiment is SW620. Kind of experiment: Sulphorhodamine B assay in SW620 colon cancer cells. It is filed as cell-based. The conditions noted are these: Homo sapiens, SW-620; SRB assay.
In a further experiment the test system is K562. The experiment in a line: MTT cytotoxicity assay in K562 cells. It is filed as cell-based. The conditions noted are these: Homo sapiens. (Tetrazolium dyes change colour on reduction, which living cells bring about.)
In another experiment the test system is HL60. The experiment in a line: MTT cytotoxicity assay in HL-60 cells. It is filed as cell-based. The conditions noted are these: Homo sapiens.
The subject of the next experiment is Vero. The experiment in a line: Cytotoxicity in Vero kidney epithelial cells. It is filed as cell-based, monkey. The conditions noted are these: Primates, Vero; Table 2; normal cell line. On the procedure:
(§1) To consider a molecule as a candidate compound in cancer drug therapy, the test compound must have specific cytotoxicity towards the cancer cells without affecting normal cell growth. Therefore, all active compounds were assessed for toxicity in non-cancer cell-lines: mouse fibroblast cell line (NIH3T3) and monkey kidney epithelial cells (Vero). […] Therefore, based on safety index ([…]), 5d [Centans; based on IUPAC name prefixed with Central Drug Research Institute's signature (Cent)] was selected as a lead compound.

The subject of a further experiment is DU-145. The experiment in a line: MTT assay in DU-145 prostate tumor cells. The following applies: Homo sapiens, DU-145, Table 6, 48 h, 10 point dose response. It is filed as cell-based.
The next experiment relates to MDA-MB231. Kind of experiment: MTT assay in MDA-MB-231 breast tumor cells. It is filed as cell-based. The conditions noted are these: Homo sapiens, MDA-MB-231, Table 6, 48 h, 10 point dose response.
The subject of the next experiment is NIH3T3. The experiment in a line: MTT cytotoxicity assay in NIH3T3 fibroblasts. It is filed as cell-based, mouse. The following applies: Mus musculus. On the procedure: as §1
In a further experiment the test system is U937. The experiment in a line: Cytotoxicity in U937 cells. In kind it is cell-based. The following applies: Homo sapiens, U-937, Table 2.
Another experiment relates to MCF-7. The experiment in a line: MTT assay in MCF-7 breast tumor cells. In kind it is cell-based. The conditions noted are these: Homo sapiens, MCF7, Table 6, 48 h, 10 point dose response.
Another experiment deals with Ishikawa. Kind of experiment: MTT assay in Ishikawa endometrial adenocarcinoma cells. The conditions noted are these: Homo sapiens, Ishikawa, Table 6, 48 h, 10 point dose response. It is filed as cell-based.
The subject of another experiment is Kasumi 1. The experiment in a line: Cytotoxicity in Kasumi 1 cells. The conditions noted are these: Homo sapiens, Kasumi 1, Table 2. In kind it is cell-based.
Setting [2] is: K562, 48 h, Table 1, MTT assay after 48 h treatment.
Where [3] appears, read: HL-60, 48 h, Table 1, MTT assay after 48 h treatment.
Setting [4] is: NIH3T3, 48 h, Table 1, MTT assay after 48 h treatment.
Where [5] appears, read: NIH3T3, Table 2, normal cell line.

Where a name gives a salt, the structure may show the parent alone. Where only a bound is given, the exact number is not on record here.

For `O=c1[nH]cc(F)c(=O)[nH]1` [Compound 5-FU, 5-fluoro uracil, reference compound], the IC50 in the experiment on Colo205 is 38.1 µM; with DLD1, 16.4 µM; in the experiment with HCT116, greater than 50 µM; in the experiment with SW620, greater than 50 µM. Further, the “CD133+ population after treatment (minus isotype control)” value in experiment [1] is given as “no effect”.
As for `CSc1ccc(/C(=N/OCCN2CCCCC2)c2cccc3ccccc23)cc1` [Compound 5a, (4-(methylthio)phenyl)(naphthalen-1-yl)methanone O-2-(piperidin-1-yl)ethyl oxime oxalate], the IC50 with K562 (setting [2]) was 5.8 µM; in the experiment with K562 (K562, Table 2), 5.8 µM; in the experiment with HL60 (setting [3]), greater than 20 µM; with HL60 (HL-60, Table 2), greater than 20 µM; in the experiment with Vero, greater than 25 µM; in the experiment on DU-145 it was 10 µM. For the same compound, the IC50 in the experiment with MDA-MB231 is 8.8 µM; in the experiment on NIH3T3 (setting [4]), 15 µM; in the experiment with NIH3T3 (setting [5]), 15 µM; in the experiment on U937, greater than 18 µM; in the experiment with MCF-7 it was 13.5 µM; with Ishikawa, 10 µM. The IC50 in the experiment on Kasumi 1 is 27 µM.
As to `CSc1ccc(/C(=N/OCCCN(C)C)c2cccc3ccccc23)cc1` [Compound 5m, (4-(methylthio)phenyl)(naphthalen-1-yl)methanone O-3-(dimethylamino)propyl oxime oxalate], the IC50 in the experiment on K562 (setting [2]) was 4.8 µM; in the experiment with K562 (K562, Table 2), 4.8 µM; in the experiment with HL60 (setting [3]) it was 7.78 µM; with HL60 (HL-60, Table 2), 7.78 µM; in the experiment on Vero, greater than 25 µM; in the experiment with DU-145, 9.5 µM. Besides, the IC50 in the experiment with MDA-MB231 is 7.2 µM; with NIH3T3 (setting [4]), greater than 25 µM; in the experiment with NIH3T3 (setting [5]), greater than 25 µM; in the experiment on U937, greater than 15 µM; in the experiment on MCF-7, 8 µM; in the experiment on Ishikawa it was 7 µM. In addition, in the experiment with Kasumi 1, the IC50 was greater than 10 µM.
In the case of `CSc1ccc(/C(=N/OCCCN2CCC(C)CC2)c2cccc3ccccc23)cc1` [Compound 7c, (4-(methylthio)phenyl)(naphthalen-1-yl)methanone O-3-(4-methylpiperidin-1-yl)propyl oxime oxalate], the IC50 with K562 (setting [2]) is 5.73 µM; in the experiment on K562 (K562, Table 2), 5.73 µM; with HL60 (setting [3]) it was greater than 50 µM; with HL60 (HL-60, Table 2), greater than 50 µM; with Vero, greater than 25 µM; with DU-145 it was 10 µM. In addition, the IC50 in the experiment with MDA-MB231 was 20 µM; in the experiment on NIH3T3 (setting [4]), 21 µM; with NIH3T3 (setting [5]), 21 µM; with U937 it was greater than 25 µM; in the experiment on MCF-7, 6.5 µM; in the experiment with Ishikawa, greater than 50 µM. The same compound yielded an IC50 in the experiment with Kasumi 1 of 19 µM.
As to `CC[C@@H](C(=O)[C@@H](C)[C@@H](O)[C@H](C)[C@@H]1O[C@@H]([C@@H](CC)C(=O)O)CC[C@@H]1C)[C@H]1O[C@]2(C=C[C@@H](O)[C@]3(CC[C@@](C)([C@H]4CC[C@](O)(CC)[C@H](C)O4)O3)O2)[C@H](C)C[C@@H]1C` [salinomycin], in [1], the “CD133+ population after treatment (minus isotype control)” value amounted to 5.42%.

Usually IC50 stands for the midpoint of a concentration-inhibition curve. Low readings indicate higher potency, high ones lower potency.
